Assay results reported in article PMC9740098, “In Vitro Evaluation of the Interaction of Seven Biologically Active Components in Anemarrhenae rhizoma with P-gp” (Molecules, 2022).

How the values were obtained:
[1] = target: T1, P-gp (Homo sapiens, UniProt P08183); experiment: Bidirectional transport assay of single components (substrate assay), with or without verapamil; type: in vitro ADME; settings: dog; for efflux ratio at 2 h: n = 3, read-out: ER (efflux ratio); for Papp A→B at 2 h / Papp B→A at 2 h: n = 3
T1 sequence (P08183 whole entry): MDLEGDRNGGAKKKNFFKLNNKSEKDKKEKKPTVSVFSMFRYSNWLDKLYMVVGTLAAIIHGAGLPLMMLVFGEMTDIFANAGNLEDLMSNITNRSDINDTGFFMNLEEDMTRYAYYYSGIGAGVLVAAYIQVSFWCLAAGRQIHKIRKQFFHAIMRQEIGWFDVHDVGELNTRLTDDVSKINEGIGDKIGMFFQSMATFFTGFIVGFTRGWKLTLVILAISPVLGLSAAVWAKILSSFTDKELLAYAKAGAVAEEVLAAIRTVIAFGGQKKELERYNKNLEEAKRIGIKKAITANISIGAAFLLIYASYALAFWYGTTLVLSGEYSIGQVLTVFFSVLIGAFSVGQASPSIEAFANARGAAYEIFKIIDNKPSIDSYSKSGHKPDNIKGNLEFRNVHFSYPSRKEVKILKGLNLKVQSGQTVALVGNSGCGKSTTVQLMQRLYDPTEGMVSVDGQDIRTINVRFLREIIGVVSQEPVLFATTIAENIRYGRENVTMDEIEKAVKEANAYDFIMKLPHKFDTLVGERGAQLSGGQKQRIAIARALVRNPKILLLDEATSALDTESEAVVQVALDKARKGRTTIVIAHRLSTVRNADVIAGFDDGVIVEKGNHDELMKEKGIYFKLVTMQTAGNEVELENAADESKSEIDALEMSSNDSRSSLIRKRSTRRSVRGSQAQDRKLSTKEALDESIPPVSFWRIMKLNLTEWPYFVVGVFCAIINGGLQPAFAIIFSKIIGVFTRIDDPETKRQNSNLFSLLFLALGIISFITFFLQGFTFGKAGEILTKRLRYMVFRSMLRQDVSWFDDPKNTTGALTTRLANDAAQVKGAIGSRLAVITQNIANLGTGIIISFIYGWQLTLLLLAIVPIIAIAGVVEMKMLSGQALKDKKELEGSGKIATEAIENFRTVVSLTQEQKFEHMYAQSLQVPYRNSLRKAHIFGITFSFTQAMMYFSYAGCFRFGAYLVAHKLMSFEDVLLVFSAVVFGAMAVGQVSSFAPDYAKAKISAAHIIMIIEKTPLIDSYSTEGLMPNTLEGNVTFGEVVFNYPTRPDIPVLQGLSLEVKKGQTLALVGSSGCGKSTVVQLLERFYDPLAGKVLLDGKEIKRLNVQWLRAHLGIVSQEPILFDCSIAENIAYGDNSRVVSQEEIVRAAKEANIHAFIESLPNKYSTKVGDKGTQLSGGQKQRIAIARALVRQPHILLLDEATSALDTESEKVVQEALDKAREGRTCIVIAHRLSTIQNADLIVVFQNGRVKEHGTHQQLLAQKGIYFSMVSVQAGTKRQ
Procedure: (§1) Before experiments, cell monolayers were washed twice with HBSS and equilibrated with HBSS for 30 min at 37 °C. HBSS containing different components was added to either the apical or basolateral chamber (donor chamber), and blank HBSS was added to the opposite chamber (receiver chamber). The total volume is 0.5 mL in the apical chamber and 1.5 mL in the basolateral chamber. Aliquots (100 μL) were taken from the acceptor chamber every 30 min for 2 h, and the same volume of HBSS was replenished. The transport samples were prepared using solid-phase extraction (SPE). Bond Elut C18 cartridge (Agilent, Santa Clara, CA, USA, 100 mg, 1 mL, 100/pk) was preconditioned with 1 mL methanol and 1 mL deionized water. Both 100 μL of bidirectional assay sample solution and 20 μL of IS solution was loaded onto the SPE cartridge, and the eluent that passed through the SPE cartridge was discarded. After washing with 1 mL of deionized water, 1 mL of the eluent solvent was introduced into the SPE cartridge for collection. The target solutions were concentrated by nitrogen blowing and re-dissolved. The amount of seven constituents of AR was determined by LC-MS/MS. The apparent permeability (Papp) of each substrate across MDCK-MDR1 cell monolayers in both the basolateral to apical (B > A) and apical to basolateral (A > B) directions were calculated using the following formula: […]

[2] = target: T1, P-gp; experiment: Bidirectional transport assay of AR extract (seven components quantified); type: in vitro ADME; settings: dog; for Papp A→B at 2 h / Papp B→A at 2 h: component given as AR extract (10 mg/mL in HBSS)
Procedure: as §1, with “The HBSS containing 10 mg/mL AR extract was prepared. Before” for “Before”, “AR extract” for “different components”

[3] = target: T1, P-gp; experiment: Bidirectional transport assay of Rh-123 (P-gp inhibition); type: cell-based; settings: for Papp (AP-BL) of rhodamine-123 in combination with the compound / Papp (BL-AP) of rhodamine-123 in combination with the compound: dog, MDCK-MDR1, 120 min
Procedure: The HBSS containing 10 μM Rh-123 and different AR components as described in the above Section 4.6.1 were prepared. Additionally, The HBSS containing 10 μM Rh-123 and 0.625 μM valspodar were prepared as the positive control. Before experiments, cell monolayers were washed twice with HBSS and equilibrated with HBSS for 30 min at 37 °C. HBSS containing AR component and Rh-123 was added to either the apical or basolateral chamber (donor chamber), and HBSS containing AR component was added to the opposite chamber (receiver chamber). The total volume is 0.5 mL in the apical chamber and 1.5 mL in the basolateral chamber. Aliquots (100 μL) were taken from the acceptor chamber at 15 min, 30 min, 60 min, 90 min, and 120 min, and the same volume of blank HBSS was replenished. The positive control group was treated as above. The apparent permeability (Papp) of each substrate across MDCK-MDR1 cell monolayers in both the basolateral to apical (B > A) and apical to basolateral (A > B) directions were calculated using the following formula: […]

[4] = system: MDCK-MDR1 monolayer cell model; experiment: Permeability assay validating the MDCK-MDR1 monolayer cell model; type: in vitro ADME; settings: in 120 min
Excerpt: In this study, an MDCK-MDR1 monolayer cell model was established.

[5] = MDCK-MDR1, Single Component Group, Papp(BL-AP)/Papp(AP-BL)
[6] = MDCK-MDR1, with verapamil (concentration not stated), Single Component + Verapamil Group
[7] = Single Component Group, MDCK-MDR1, 2.0 µM TAIII, 1.6 μM TBII, 4.7 μM MGF, 4.7 μM IMGF, 3.4 μM NMGF, 1.2 μM SSG, 3.9 μM BHI
[8] = Single Component Group, MDCK-MDR1
[9] = MDCK-MDR1, AR Extract Group, n = 3, read-out: ER (efflux ratio)
[10] = MDCK-MDR1, Single Component + Verapamil Group

efflux ratio at 2 h [1, 5] | efflux ratio at 2 h [1, 6] | Papp A→B at 2 h [1, 7] | Papp B→A at 2 h [1, 8] | efflux ratio at 2 h [2, 9] | Papp A→B at 2 h ([2]; MDCK-MDR1, n = 3) | Papp B→A at 2 h ([2]; MDCK-MDR1, n = 3) | Papp (AP-BL) of rhodamine-123 in combination with the compound [3] | Papp (BL-AP) of rhodamine-123 in combination with the compound [3] | Structure (SMILES) | Papp A→B at 2 h [1, 10] | Papp B→A at 2 h [1, 10] | efflux ratio at 2 h [1, 10] | Papp A→B at 2 h ([1]; MDCK-MDR1, Single Component Group, 2.0 µM TAIII, 1.6 μM TBII, 4.7 μM MGF, 4.7 μM IMGF, 3.4 μM NMGF, 1.2 μM SSG, 3.9 μM BHI) | Papp B→A at 2 h ([1]; MDCK-MDR1, Single Component Group) | ER (efflux ratio) of rhodamine-123 in combination with the compound ([3]; 10 μM Rh-123 with AR component or 0.625 μM valspodar, control ER 2.46, MDCK-MDR1, n = 3) | efflux ratio at 2 h ([2]; AR Extract Group, MDCK-MDR1, n = 3, read-out: ER (efflux ratio)) | Pe value [4]
< 2 | 0.55 | 0.0651 ×10⁻⁶ cm/s | 0.0702 ×10⁻⁶ cm/s | 0.91 | 0.0546 ×10⁻⁶ cm/s | 0.0495 ×10⁻⁶ cm/s |  |  | O=c1c2cc(O)c(O)cc2oc2c([C@@H]3O[C@H](CO)[C@@H](O)[C@H](O)[C@H]3O)c(O)cc(O)c12 [IMGF, isomangiferin] |  |  |  |  |  |  |  | 
> 2 | 0.53 | 0.606 ×10⁻⁶ cm/s | 1.35 ×10⁻⁶ cm/s | 0.48 | 0.586 ×10⁻⁶ cm/s | 0.283 ×10⁻⁶ cm/s | 1.88 ×10⁻⁶ cm/s | 2.36 ×10⁻⁶ cm/s | O=c1c2cc(O)c(O)cc2oc2cc(O)c([C@@H]3O[C@H](CO)[C@@H](O)[C@H](O)[C@H]3O)c(O)c12 [MGF, mangiferin] |  |  |  |  |  |  |  | 
> 2 | 0.65 | 0.719 ×10⁻⁶ cm/s | 1.67 ×10⁻⁶ cm/s | 0.83 | 1.81 ×10⁻⁶ cm/s | 1.5 ×10⁻⁶ cm/s | 1.85 ×10⁻⁶ cm/s | 2.34 ×10⁻⁶ cm/s | C[C@@H](CC[C@@]1(O)O[C@H]2C[C@H]3[C@@H]4CC[C@@H]5C[C@@H](O[C@@H]6O[C@H](CO)[C@H](O)[C@H](O)[C@H]6O[C@@H]6O[C@H](CO)[C@@H](O)[C@H](O)[C@H]6O)CC[C@]5(C)[C@H]4CC[C@]3(C)[C@H]2[C@@H]1C)CO[C@@H]1O[C@H](CO)[C@@H](O)[C@H](O)[C@H]1O [TBII, timosaponin BII] |  |  |  |  |  |  |  | 
2.26 | 1.08 | 0.24 ×10⁻⁶ cm/s | 0.72 ×10⁻⁶ cm/s |  | 0.155 ×10⁻⁶ cm/s | 0.298 ×10⁻⁶ cm/s | 1.73 ×10⁻⁶ cm/s | 2.53 ×10⁻⁶ cm/s | COc1ccc(-c2oc3c(CC=C(C)C)c(O)cc(O)c3c(=O)c2O[C@@H]2O[C@@H](C)[C@H](O)[C@@H](O)[C@H]2O)cc1 [BHI, baohuoside I] |  |  |  |  |  |  |  | 
< 2 | 0.52 | 0.121 ×10⁻⁶ cm/s | 0.137 ×10⁻⁶ cm/s | 0.67 | 0.0976 ×10⁻⁶ cm/s | 0.0654 ×10⁻⁶ cm/s |  |  | O=c1c2cc(O[C@@H]3O[C@H](CO)[C@@H](O)[C@H](O)[C@H]3O)c(O)cc2oc2cc(O)c([C@@H]3O[C@H](CO)[C@@H](O)[C@H](O)[C@H]3O)c(O)c12 [NMGF, neomangiferin] |  |  |  |  |  |  |  | 
 |  |  |  |  |  |  |  |  | O=C([O-])c1ccccc1-c1c2ccc(=O)cc-2oc2cc([O-])ccc12.[Na+].[Na+] [fluorescein sodium] |  |  |  |  |  |  |  | 0.78 ± 0.02 × 10^−6 cm/s
> 2 | 0.88 | 0.955 ×10⁻⁶ cm/s | 2.16 ×10⁻⁶ cm/s | 0.63 | 3.05 ×10⁻⁶ cm/s | 1.94 ×10⁻⁶ cm/s | 1.78 ×10⁻⁶ cm/s | 2.17 ×10⁻⁶ cm/s | C[C@H]1CC[C@@]2(OC1)O[C@H]1C[C@H]3[C@@H]4CC[C@@H]5C[C@@H](O[C@@H]6O[C@H](CO)[C@H](O)[C@H](O)[C@H]6O[C@@H]6O[C@H](CO)[C@@H](O)[C@H](O)[C@H]6O)CC[C@]5(C)[C@H]4CC[C@]3(C)[C@H]1[C@@H]2C [TAIII, timosaponin AIII] |  |  |  |  |  |  |  | 

Structure (SMILES) | efflux ratio at 2 h [1, 5] | efflux ratio at 2 h [1, 6] | Papp A→B at 2 h [1, 7] | Papp B→A at 2 h [1, 8] | efflux ratio at 2 h [2, 9] | Papp A→B at 2 h ([2]; MDCK-MDR1, n = 3) | Papp B→A at 2 h ([2]; MDCK-MDR1, n = 3) | Papp (AP-BL) of rhodamine-123 in combination with the compound [3] | Papp (BL-AP) of rhodamine-123 in combination with the compound [3] | Papp A→B at 2 h [1, 10] | Papp B→A at 2 h [1, 10] | efflux ratio at 2 h [1, 10] | Papp A→B at 2 h ([1]; MDCK-MDR1, Single Component Group, 2.0 µM TAIII, 1.6 μM TBII, 4.7 μM MGF, 4.7 μM IMGF, 3.4 μM NMGF, 1.2 μM SSG, 3.9 μM BHI) | Papp B→A at 2 h ([1]; MDCK-MDR1, Single Component Group) | ER (efflux ratio) of rhodamine-123 in combination with the compound ([3]; 10 μM Rh-123 with AR component or 0.625 μM valspodar, control ER 2.46, MDCK-MDR1, n = 3) | efflux ratio at 2 h ([2]; AR Extract Group, MDCK-MDR1, n = 3, read-out: ER (efflux ratio)) | Pe value [4]
C[C@H]1CC[C@@]2(OC1)O[C@H]1C[C@H]3[C@@H]4CC[C@@H]5C[C@@H](O)CC[C@]5(C)[C@H]4CC[C@]3(C)[C@H]1[C@@H]2C [SSG, sarsasapogenin] | < 2 |  |  |  |  | 0.0398 ×10⁻⁶ cm/s | 0.0347 ×10⁻⁶ cm/s |  |  | 0.0904 ×10⁻⁶ cm/s | 0.0374 ×10⁻⁶ cm/s | 0.41 | 0.0374 ×10⁻⁶ cm/s | 0.0566 ×10⁻⁶ cm/s | no statistical difference | 0.87 | 
